Consider three compounds from patent US10154997B2, “Treatment of parasitic diseases using KDAC inhibitor compounds” (Washington University, priority 2015, dated 2018).

One test relates to L929 mouse fibroblast. Briefly: Cytotoxicity viability assay (CYT vt). In kind it is cell-based.
The subject of the next test is B. malayi. Description: Endoparasites dose response assay (Endoparasites_DR), B. malayi. Details: species or system Brugia malayi. The conditions noted are these: nematode B. malayi.
Another test has as its system human cancer cell lines. Description: Activity on human cancer cell lines. In kind it is cell-based.
In test [1] the test system is parasites (nematodes and protists). Briefly: Compound screening in parasites, summary statements.
For a further test, the system named is H. contortus. Briefly: Endoparasites dose response assay (Endoparasites_DR), H. contortus. As to conditions: Haemonchus contortus, 96 h.

pEC50, pIC50: −log10 of the molar value. Read-outs that look alike come from different tables or passages of the source.

A word on the pEC50: it is the negative decadic logarithm of the EC50, by convention in mol/L. A lower pEC50 goes with a high EC50. Regarding `Cn1cc(/C=C/C(=O)c2cccc(NC(=O)OC(C)(C)C)c2)cc1C(=O)NO` [MC2776], the pIC50 in the test on L929 mouse fibroblast (host-cell line, read-out: activity in the host-cell line) is under 5.00; in the test on human cancer cell lines it was under 5.00. The pEC50 in the test with B. malayi is 5.36. Also, the “efficacy in the protists” value in test [1] (any of the protists) is listed as “did not show any efficacy”.
In the case of `CCCCCCCC(=O)SCC/C=C/[C@@H]1CC(=O)NCc2nc(cs2)C2=N[C@@](C)(CS2)C(=O)N[C@@H](C(C)C)C(=O)O1` [SD-L-148, Largazole, reference compound], the pIC50 was 7.00 in the test with L929 mouse fibroblast (Mus musculus, L929) and 5.15 in the test with H. contortus.
With `CC(C)(C)OC(=O)Nc1cccc(C(=O)/C=C/c2ccc(/C=C/C(=O)NO)cc2)c1` [MC2780], the pan-parasite potential entry in test [1] (across parasites screened) is “demonstrated pan-parasite potential”.
